Measurements taken from patent publication US20090291905A1, “FUNGAL PHYTOTOXIN FUSICOCCIN FOR THE TREATMENT AND DIAGNOSIS OF COAGULATION-CORRELATED PATHOLOGIES” (priority 2008, published 2009).
Square brackets hold non-standard residues; d marks the D form. Primed or numbered codes have the meaning given here. Ends that are not written are not given here. * marks the point of attachment. Myristoyl = CCCCCCCCCCCCCC(=O)*; pS′ = not defined here

Legend:
[1] = molecular target: T1, 14-3-3 proteins / GPIbα (UniProt P07359+P49106); experiment: Overlay assay of 32P-14-3-3 on blotted platelet proteins; type: binding, human; settings: 10 μM FC; autoradiography
T1 construct: GST (pGEX-2TK, with protein kinase A site at the junction, 32P-labelled) (N); made in house; host or cells: E. coli (14-3-3 probe); GPIbα endogenous, from boiled human platelet suspension
Procedure: A: SDS-PAGE profile of platelet proteins. B: immunodecoration of GPIbα with anti-GPIbα ([…]) antidoby. C: overlay assay. Maize plasma membrane proteins (lanes 1, positive control) or platelet proteins (lanes 2) were separated by SDS-PAGE, blotted onto nitrocellulose membrane, incubated with ^32P-14-3-3 in the absence (−FC) or in the presence (+FC) of 10 μM FC and subjected to autoradiography as described in the Materials and Methods.
SDS-PAGE was performed as described by Laemmli (1970), in a Mini Protean apparatus (Bio-Rad). The overlay assay was carried out according to Fullone et al. (1998), with minor modifications. The GST-fused 14-3-3 was labelled with [γ^32P]-ATP on cAMP-dependent protein kinase phosphorylation site present at junction between GST and the cloned protein, ^32P-labelled GF14-6 was used as probe in the overlay experiments. 30 μl of platelet suspension (2.0×10^8/mi) was boiled in Laemmli loading buffer, separated on SDS-PAGE and blotted on nitrocellulose membrane by semidry electroblotting. 20 μg of maize plasma membrane proteins were used as positive control. […] Nitrocellulose membrane was extensively washed with buffer HT and radioactivity detected by autoradiography. […]

[2] = system: isolated human platelets; experiment: Binding of [3H]FC to isolated human platelets; settings: 10 nM [3H]FC, displaced by 10 μM unlabelled FC; 1 h at 37° C.
Procedure: 30 μl of platelet suspension (2.0×10^8/ml) were incubated for 1 h at 37° C. with 5×10^5 dpm [^3H]FC in 100 μl PBS containing 5 mM MgCl2. Where indicated, 10 μM cold FC was added (+FC). Platelets were then sedimented by centrifugation and radioactivity measured by scintillation counting.
30 μl of platelet suspension (2.0×10^8/ml) were incubated for 1 h at 37° C. with 5×10^5 dpm [^3H]FC in 100 μl PBS containing 5 mM MgCl2. To calculate specific binding, control sample was incubated with 10 μM FC. Platelets were centrifuged at 2000 g for 4 min in a refrigerated microcentrifuge and extensively washed in PBS containing 5 mM MgCl2. 500 μl perchloric acid was then added and radioactivity was measured in a liquid scintillation β-counter.
In order to verify whether a FC binding activity is present in purified human platelets, a [^3H]FC analogue (Ballio et al., 1980) was utilised. 30 μl platelet suspension in PBS (2.0×10^8/ml) were incubated with 10 nM [^3H]FC, and after several washings, the platelet-associated radioactivity was measured. The specific [^3H]FC binding was evaluated by adding a saturating concentration of unlabelled FC.

[3] = molecular target: T2, 14-3-3 proteins / bD15Lp peptide (last 15 amino acid residues of GPIbα) (UniProt P07359+P49106); experiment: Binding of 32P-labelled 14-3-3 (GF14-6) to resin-bound bD15Lp phosphopeptide; settings: 10 μM FC; resin-bound radioactivity; no binding in the absence of FC
T2 construct: GST (pGEX-2TK, with protein kinase A site at the junction, 32P-labelled) (N); made in house; host or cells: E. coli (14-3-3); peptide synthesized by Neosystem
Procedure: (§1) Peptides were immobilized onto streptavidin-agarose resin and incubated with ^32P-labelled 14-3-3 in the absence or in the presence of 10 μM FC. After washing, radioactivity associated with the resin was measured. Data are the mean of three independent experiments.
(§2) 0.5 nmol of biotinylated peptides were immobilized onto 40 μl of streptavidin-agarose resin (Sigma-Aldrich) and incubated in 50 μl of buffer H with 3 μg of ^32P-labelled GF14-6 (1.4 kBq/μg) for 60 min at room temperature in the absence or in the presence of 10 μM FC. Resin was then centrifuged at 2000×g for 5 min and washed three times with 1 ml of buffer H. Resin-bound radioactivity was measured in a liquid scintillation β-counter Packard Tri Carb 2100TR (Canberra, Australia).
(§3) A phosphorylated biotinyl-peptide (bD15Lp), reproducing the last 15 amino acid residues of GPIbα, and containing the 14-3-3 binding sequence, was used in interaction studies with 14-3-3 proteins to verify the ability of FC to stimulate the interaction. The unphosphorylated corresponding peptide ([…]) and peptides reproducing the last 15 amino acids of the H^+-ATPase in unphosphorylated (bL15V) and phosphorylated form (bL15Vp) were used as control.
(§4) The peptides were immobilized onto a streptavidin-agarose resin and incubated with ^32P-labelled 14-3-3 proteins.

[4] = system: platelet aggregation (PRP); experiment: Platelet aggregation in PRP (turbidometric aggregometer); type: cell-based, human; settings: for Platelet agglutination/aggregation induced: different FC concentrations, ristocetin 1 mg/ml
Procedure: Aggregation was studied with PRP using a turbidometric aggregometer as described in the Materials and Methods. A: effect of different concentrations of FC and ristocetin 1.0 mg/ml. B: effect of 40 μM FC in the presence of the aggregation antagonist RGDS peptide. C: effect of 40 μM FC in the presence of the cell-permeable 14-3-3 competitor MPAC peptide.
Washed platelets were prepared from platelet-rich plasma (PRP) obtained from healthy donors who had not taken medication for at least 9 days before bleeding. Preparation of PRP was performed as described by Dai et al. (2005).
PRPs were preincubated at 37° C. with different FC concentrations and, when indicated 0.1 mM MPaC or 0.75 mM RGDS. Aggregation was measured using a turbidometric platelet aggregometer Chrono-log 560 CA (Chrono-log Corporation, Pa., USA). 500 μl PRP were placed in a cuvette at 37° C. under continuous stirring at 1000 rpm. Aggregation was expressed as percentage of change in light transmission, with the value for the blank sample (PPP, Platelet-Poor Plasma) set at 100% and 0% for PRP.
To determine whether the FC-promoted binding of platelets to vWF results in platelet aggregation, the effect of FC on platelet functionality was assayed using an optical aggregometer. […] To determine whether the FC effect involves 14-3-3 proteins, the MPAC peptide was tested in FC-induced platelet agglutination.

[5] = molecular target: T3, 14-3-3 proteins / bL15Vp peptide (last 15 amino acids of the H+-ATPase) (Zea mays, UniProt P49106); experiment: Binding of 32P-labelled 14-3-3 (GF14-6) to resin-bound bL15Vp phosphopeptide; settings: 10 μM FC; resin-bound radioactivity
T3 construct: GST (pGEX-2TK, with protein kinase A site at the junction, 32P-labelled) (N); made in house; host or cells: E. coli (14-3-3); peptide synthesized by Neosystem
T3 sequence (P49106 1-261): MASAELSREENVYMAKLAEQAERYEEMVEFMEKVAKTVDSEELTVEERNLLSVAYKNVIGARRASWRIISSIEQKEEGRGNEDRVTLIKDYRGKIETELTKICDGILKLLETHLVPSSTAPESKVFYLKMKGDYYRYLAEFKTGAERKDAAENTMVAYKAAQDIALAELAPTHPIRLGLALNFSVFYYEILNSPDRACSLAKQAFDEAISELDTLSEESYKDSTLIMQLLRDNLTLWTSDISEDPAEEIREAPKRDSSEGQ
Procedure: as §1, §2, §3, §4

[6] = system: platelet adhesion to immobilized vWF; experiment: Platelet adhesion to immobilized vWF; type: cell-based, human; settings: platelets pre-incubated with FC
Procedure: 90 μl platelet suspension was incubated with purified vWF immobilized onto polystyrene wells. After washings, adherent platelets were determined measuring the endogenous acid phosphatase activity. +FC, platelets previously treated with 40 μM FC; +ADP, incubation in the presence of 50 μM ADP.
Platelet adhesion to immobilized vWF was performed in polystyrene microtitre plate wells as described by Lu et al. (1994) with minor modifications. Briefly, plate wells were coated overnight at 4° C. with 100 μl 15 μg/ml purified vWF and 15 μg/ml BSA. After three washes with PBS unbound sites were saturated with 200 μl of 2 mg/ml BSA for 2 h at RT. After three washings with PBS, wells were incubated with 90 μl platelet suspension (2.0×10^8/ml) previously treated with 40 μM FC. Where indicated, wells were preloaded with 50 μM ADP. After 1 h incubation at RT, non-adherent platelets were removed by 7 washings with a buffer 10 mM Hepes containing 145 mM NaCl, 5 mM KCl, 1 mM MgCl2, 2 mM CaCl2, 10 mM glucose, 3.5 mg/ml BSA, pH 7.35. The number of vWF-bound platelet was calculated by measurement of endogenous acid phosphatase using 130 μl/well of developing buffer (10 mM p-nitrophenyl phosphate, 0.1% Triton X-100, 50 mM sodium citrate, pH 5.5). After 1 h at 37° C. incubation, the reaction was stopped by the addition of 10 μl of 1 M NaOH/well and the plates were read at 405 nm on an automated plate reader. […]

T1 sequence (P07359 17-652, one chain of several): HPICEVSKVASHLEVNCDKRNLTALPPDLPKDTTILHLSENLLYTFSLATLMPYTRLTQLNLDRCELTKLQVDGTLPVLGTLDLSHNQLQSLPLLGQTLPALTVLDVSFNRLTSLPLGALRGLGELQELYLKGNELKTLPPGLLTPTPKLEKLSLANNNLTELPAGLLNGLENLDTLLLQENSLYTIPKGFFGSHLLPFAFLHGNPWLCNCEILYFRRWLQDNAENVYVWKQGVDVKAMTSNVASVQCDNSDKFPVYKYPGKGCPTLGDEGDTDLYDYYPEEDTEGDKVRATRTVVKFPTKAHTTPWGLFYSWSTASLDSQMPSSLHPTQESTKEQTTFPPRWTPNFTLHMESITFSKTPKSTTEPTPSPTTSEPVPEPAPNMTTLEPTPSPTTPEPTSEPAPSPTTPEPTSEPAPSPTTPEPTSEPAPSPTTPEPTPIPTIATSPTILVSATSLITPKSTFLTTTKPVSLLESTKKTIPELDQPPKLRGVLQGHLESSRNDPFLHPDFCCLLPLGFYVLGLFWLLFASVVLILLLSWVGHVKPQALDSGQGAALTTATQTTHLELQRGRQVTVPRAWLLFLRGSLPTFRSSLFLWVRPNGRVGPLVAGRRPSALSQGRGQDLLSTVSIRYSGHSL

Row | Molecule | Effect of FC on the interaction between 14-3-3 proteins and GPIbα (135 kDa band) [1] | Specific [3H]FC binding to platelets [2] | Effect of FC on 14-3-3 binding to immobilized bD15Lp peptide [3] | FC concentration giving maximum agglutination ([4]; PRP, 37° C.) [µM] | Platelet agglutination/aggregation induced ([4]; PRP, 37° C.) | Effect of FC on 14-3-3 binding to immobilized bL15Vp peptide [5] | Number of platelets adherent to vWF ([6]; in the presence of 50 μM platelet agonist ADP (+ADP)) | Number of platelets adherent to vWF ([6]; resting platelets (−ADP)) | Inhibition of FC-induced platelet aggregation ([4]; 40 μM FC, 0.1 mM MPαC or 0.75 mM RGDS)
1 | C=CC(C)(C)OC[C@H]1O[C@H](O[C@@H]2C3=C([C@H](C)COC(C)=O)C[C@H](O)[C@]3(C)/C=C3/[C@@H](COC)CC[C@H]3[C@@H](C)[C@H]2O)[C@H](O)[C@@H](OC(C)=O)[C@@H]1O [FC, fusicoccin] | the interaction is increased | platelets possess specific FC binding activity | in the presence of the toxin binding is generated | 40 | slight but reproducible agglutination in a dose-dependent manner | strongly stimulated | significantly increased | significantly increased | –
2 | C13H27CONH-Ser-lle-Arg-Tyr-Ser-Gly-His-pSer-Leu (Myristoyl-SIRYSGH[pS′]L) [MPαC, reference compound] | – | – | – | – | – | – | – | – | completely inhibits FC effect
3 | ristocetin [reference compound] | – | – | – | – | rapid platelet agglutination | – | – | – | –
